Patent publication US8076338B2, “Kinase modulators and methods of use” (Exelixis, Inc., priority 2004, dated 2011)
pIC50: −log10 of the molar value. Where two headings read alike, the source gives them in different places.

Experiments:
AktK = AktK (Homo sapiens, UniProt P31749); experiment: Luciferase-coupled chemiluminescence kinase assay (ATP consumption); assay type: biochemical; details: read-out: AKT-1 IC50
How it was run: (§1)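 Activity is read as ATP depletion: luciferase-luciferin reagent added after a 3 h ambient-temperature kinase reaction, with total ATP use limited to 25-60%. Before ATP addition, 2.5-5 nM kinase and compound were preincubated 30 min in Tris pH 7.5/MgCl2/TX-100/DTT buffer; […].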

p70S6K = p70S6K (Homo sapiens, UniProt P23443); experiment: as above; assay type: biochemical
p70S6K, sequence (P23443 whole entry): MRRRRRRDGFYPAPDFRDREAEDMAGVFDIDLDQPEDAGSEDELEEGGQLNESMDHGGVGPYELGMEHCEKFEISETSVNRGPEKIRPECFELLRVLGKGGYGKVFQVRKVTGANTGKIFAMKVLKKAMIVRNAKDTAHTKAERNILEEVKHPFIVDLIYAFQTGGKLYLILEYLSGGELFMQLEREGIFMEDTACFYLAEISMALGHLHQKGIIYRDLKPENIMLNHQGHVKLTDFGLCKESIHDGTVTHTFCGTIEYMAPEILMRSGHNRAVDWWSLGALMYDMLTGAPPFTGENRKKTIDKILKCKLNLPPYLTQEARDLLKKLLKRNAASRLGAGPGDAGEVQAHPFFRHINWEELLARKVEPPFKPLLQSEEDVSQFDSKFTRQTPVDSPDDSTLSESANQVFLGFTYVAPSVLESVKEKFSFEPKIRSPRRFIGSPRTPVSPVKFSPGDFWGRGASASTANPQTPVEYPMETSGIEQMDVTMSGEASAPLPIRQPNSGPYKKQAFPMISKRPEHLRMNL
How it was run: as §1

AktK, sequence (P31749 whole entry): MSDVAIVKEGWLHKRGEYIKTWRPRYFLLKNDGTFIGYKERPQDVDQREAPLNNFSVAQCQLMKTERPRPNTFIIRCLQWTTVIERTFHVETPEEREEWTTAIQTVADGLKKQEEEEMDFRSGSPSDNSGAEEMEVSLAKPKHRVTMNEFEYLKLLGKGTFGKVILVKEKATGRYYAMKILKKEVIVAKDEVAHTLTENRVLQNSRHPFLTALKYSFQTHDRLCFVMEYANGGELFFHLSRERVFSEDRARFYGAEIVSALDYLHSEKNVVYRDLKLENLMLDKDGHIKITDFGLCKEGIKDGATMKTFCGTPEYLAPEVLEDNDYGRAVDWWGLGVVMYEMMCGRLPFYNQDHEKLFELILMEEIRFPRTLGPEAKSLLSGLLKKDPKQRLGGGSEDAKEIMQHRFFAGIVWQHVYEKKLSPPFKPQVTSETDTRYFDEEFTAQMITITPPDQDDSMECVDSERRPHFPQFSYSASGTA

Compound	pIC50 (AktK; Table 1, class symbols per key)	pIC50 (p70S6K; Table 1, class symbols per key)	pIC50 (AktK)	pIC50 (p70S6K)
CCN1CCN(CCOc2cc(Cl)cc(N3CCN(c4ncnc5[nH]nc(C(F)(F)F)c45)CC3)c2C)CC1 [Entry 81, 4-[4-(5-chloro-3-{[2-(4-ethylpiperazin-1-yl)ethyl]oxy}-2-methylphenyl)piperazin-1-yl]-3-(trifluoromethyl)-1H-pyrazolo[3,4-d]pyrimidine]	6.00 to 7.00	> 7.00		
FC(F)(F)c1ccc(N2CCN(c3ncnc4[nH]nc(Br)c34)CC2)cc1 [Entry 124, 3-bromo-4-{4-[4-(trifluoromethyl)phenyl]piperazin-1-yl}-1H-pyrazolo[3,4-d]pyrimidine]	≤ 5.00	6.00 to 7.00		
Cc1ccc(Cl)cc1N1CCN(c2ncnc3[nH]nc(Br)c23)C[C@H]1C [Entry 176, 3-bromo-4-[(3R)-4-(5-chloro-2-methylphenyl)-3-methylpiperazin-1-yl]-1H-pyrazolo[3,4-d]pyrimidine]	≤ 5.00	6.00 to 7.00		
FC(F)(F)c1cccc(N2CCN(c3ncnc4[nH]ncc34)CC2)c1 [Entry 316, 4-{4-[3-(trifluoromethyl)phenyl]piperazin-1-yl}-1H-pyrazolo[3,4-d]pyrimidine]			≤ 5.00	> 7.00
Cc1c(OCCCN2CCCC2)cc(Cl)cc1N1CCN(c2ncnc3[nH]nc(Br)c23)CC1 [Entry 84, 3-bromo-4-(4-{5-chloro-2-methyl-3-[(3-pyrrolidin-1-ylpropyl)oxy]phenyl}piperazin-1-yl)-1H-pyrazolo[3,4-d]pyrimidine]	> 7.00	> 7.00		
Cc1ccc(C(=O)Nc2ccccc2)cc1N1CCN(c2ncnc3[nH]nc(Br)c23)CC1 [Entry 187, 3-[4-(3-bromo-1H-pyrazolo[3,4-d]pyrimidin-4-yl)piperazin-1-yl]-4-methyl-N-phenylbenzamide]	> 7.00	> 7.00		
CCc1cc(NCCN2CCCC2)c(C)c(N2CCN(c3ncnc4[nH]nc(Br)c34)CC2)c1 [Entry 245, 3-[4-(3-bromo-1H-pyrazolo[3,4-d]pyrimidin-4-yl)piperazin-1-yl]-5-ethyl-2-methyl-N-(2-pyrrolidin-1-ylethyl)aniline]	6.00 to 7.00	> 7.00		
CCN(CC)CCOc1cccc(N2CCN(c3ncnc4[nH]nc(Br)c34)CC2)c1 [Entry 189, 2-({3-[4-(3-bromo-1H-pyrazolo[3,4-d]pyrimidin-4-yl)piperazin-1-yl]phenyl}oxy)-N,N-diethylethanamine]	≤ 5.00	6.00 to 7.00		
CCc1n[nH]c2ncnc(N3CCN(c4cc(C(=O)Nc5ccccc5)cc(Br)c4C)CC3)c12 [Entry 192, 3-bromo-5-[4-(3-ethyl-1H-pyrazolo[3,4-d]pyrimidin-4-yl)piperazin-1-yl]-4-methyl-N-phenylbenzamide]	6.00 to 7.00	> 7.00		
CCc1n[nH]c2ncnc(N3CCN(c4cc(OCC(F)(CF)CF)cc(NCCN5CCCC5)c4C)CC3)c12 [Entry 256, 5-{[2,3-difluoro-2-(fluoromethyl)propyl]oxy}-3-[4-(3-ethyl-1H-pyrazolo[3,4-d]pyrimidin-4-yl)pipera-zin-1-yl]-2-methyl-N-(2-pyrrolidin-1-ylethyl)aniline]	> 7.00	> 7.00		
Cc1c(Br)cc(OCC(F)(CF)CF)cc1N1CCN(c2ncnc3[nH]nc(Br)c23)CC1 [Entry 250, 3-bromo-4-[4-(3-bromo-5-{[2,3-difluoro-2-(fluoromethyl)propyl]oxy}-2-methylphenyl)pipera-zin-1-yl]-1H-pyrazolo[3,4-d]pyrimidine]	6.00 to 7.00	> 7.00		
CCc1n[nH]c2ncnc(N3CCN(c4cc(Cl)cc(C(=O)N5CCN(C)CC5)c4OC)CC3)c12 [Entry 375, 4-(4-{5-chloro-2-(methyloxy)-3-[(4-methylpipera-zin-1-yl)carbonyl]phenyl}piperazin-1-yl)-3-ethyl-1H-pyrazolo[3,4-d]pyrimidine]			≤ 5.00	6.00 to 7.00
CCc1n[nH]c2ncnc(N3CCN(c4nccc5ccccc45)CC3)c12 [Entry 102, 1-[4-(3-ethyl-1H-pyrazolo[3,4-d]pyrimidin-4-yl)piperazin-1-yl]isoquinoline]	≤ 5.00	> 7.00		
CCc1n[nH]c2ncnc(N3CCN(c4cc(Cl)cc(OCCCN5CCN(C)CC5)c4C)CC3)c12 [Entry 36, 4-[4-(5-chloro-2-methyl-3-{[3-(4-methylpiperazin-1-yl)propyl]oxy}phenyl)piperazin-1-yl]-3-ethyl-1H-pyrazolo[3,4-d]pyrimidine]	6.00 to 7.00	> 7.00		
CCc1n[nH]c2ncnc(N3CCN(c4cccc(Cl)c4)C(C(=O)OC)C3)c12 (stereo not shown) [Entry 346, methyl 1-(3-chlorophenyl)-4-(3-ethyl-1H-pyrazolo[3,4-d]pyrimidin-4-yl)piperazine-2-carboxylate]			≤ 5.00	5.00 to 6.00
N#Cc1cccnc1N1CCN(c2ncnc3[nH]nc(Br)c23)CC1 [Entry 127, 2-[4-(3-bromo-1H-pyrazolo[3,4-d]pyrimidin-4-yl)piperazin-1-yl]pyridine-3-carbonitrile]	≤ 5.00	6.00 to 7.00		

Compound	pIC50 (AktK; Table 1, class symbols per key)	pIC50 (p70S6K; Table 1, class symbols per key)	pIC50 (AktK)	pIC50 (p70S6K)
Cc1ccc(-c2n[nH]c3ncnc(N4CCN(c5cc(Cl)ccc5C)CC4)c23)cc1 [Entry 341, 4-[4-(5-chloro-2-methylphenyl)piperazin-1-yl]-3-(4-methylphenyl)-1H-pyrazolo[3,4-d]pyrimidine]			5.00 to 6.00	5.00 to 6.00
CCc1n[nH]c2ncnc(N3CCN(c4cc(Cl)cc(OCCN5CCCCC5)c4C)CC3)c12 [Entry 17, 4-(4-{5-chloro-2-methyl-3-[(2-piperidin-1-ylethyl)oxy]phenyl}piperazin-1-yl)-3-ethyl-1H-pyrazolo[3,4-d]pyrimidine]	5.00 to 6.00	> 7.00		
CCc1n[nH]c2ncnc(N3CCN(c4cccc(Cl)c4)CC3)c12 [Entry 333, 4-[4-(3-chlorophenyl)piperazin-1-yl]-3-ethyl-1H-pyrazolo[3,4-d]pyrimidine]			5.00 to 6.00	> 7.00
Cc1c(OCCCN2CCN(C)CC2)cc(Cl)cc1N1CCN(c2ncnc3[nH]nc(Br)c23)CC1 [Entry 85, 3-bromo-4-[4-(5-chloro-2-methyl-3-{[3-(4-methylpiperazin-1-yl)propyl]oxy}phenyl)piperazin-1-yl]-1H-pyrazolo[3,4-d]pyrimidine]	> 7.00	> 7.00		
6-(4-phenylpiperazin-1-yl)-9H-purine [Example 1]	5.00 to 6.00	5.00 to 6.00		
CCc1n[nH]c2ncnc(N3CCN(c4ccc(OCCN5CCOCC5)c(Cl)c4)CC3)c12 [Entry 345, 4-(4-{3-chloro-4-[(2-morpholin-4-ylethyl)oxy]phe-nyl}piperazin-1-yl)-3-ethyl-1H-pyrazolo[3,4-d]pyrimidine]			≤ 5.00	5.00 to 6.00
CCc1n[nH]c2ncnc(N3CCN(c4cc(Cl)cc(OC)c4)CC3)c12 [Entry 113, 4-{4-[3-chloro-5-(methyloxy)phenyl]piperazin-1-yl}-3-ethyl-1H-pyrazolo[3,4-d]pyrimidine]	≤ 5.00	> 7.00		
Cc1ccc(C(=O)NCC(C)C)cc1N1CCN(c2ncnc3[nH]nc(Cl)c23)CC1 [Entry 197, 3-[4-(3-chloro-1H-pyrazolo[3,4-d]pyrimidin-4-yl)piperazin-1-yl]-4-methyl-N-(2-methylpropyl)benzamide]	5.00 to 6.00	> 7.00		
CCc1n[nH]c2ncnc(N3CCN(c4cc(F)cc(NCCN5CCCC5)c4C)CC3)c12 [Entry 78, 3-[4-(3-ethyl-1H-pyrazolo[3,4-d]pyrimidin-4-yl)piperazin-1-yl]-5-fluoro-2-methyl-N-(2-pyrrolidin-1-ylethyl)aniline]	5.00 to 6.00	> 7.00		
COC(=O)/C=C/c1n[nH]c2ncnc(N3CCN(c4cc(Cl)ccc4C)CC3)c12 [Entry 372, methyl (2E)-3-{4-[4-(5-chloro-2-methylphenyl)piperazin-1-yl]-1H-pyrazolo[3,4-d]pyrimidin-3-yl}prop-2-enoate]			5.00 to 6.00	> 7.00
Cc1ccc(-c2ccccc2OCCCN(C)C)cc1N1CCN(c2ncnc3[nH]nc(Br)c23)CC1 [Entry 276, 3-({3′-[4-(3-bromo-1H-pyrazolo[3,4-d]pyrimidin-4-yl)piperazin-1-yl]-4′-methylbiphenyl-2-yl}oxy)-N,N-dimethylpropan-1-amine]	> 7.00	> 7.00		
Cc1ccc(-c2cccc(F)c2OCCN2CCCC2)cc1N1CCN(c2ncnc3[nH]nc(Br)c23)CC1 [Entry 282, 3-bromo-4-(4-{3′-fluoro-4-methyl-2′-[(2-pyrrolidin-1-ylethyl)oxy]biphenyl-3-yl}piperazin-1-yl)-1H-pyrazolo[3,4-d]pyrimidine]	> 7.00	> 7.00		
Cc1c(NCCN2CCCC2)cc(OCC(F)(CF)CF)cc1N1CCN(c2ncnc3[nH]nc(/C=C/C(=O)O)c23)CC1 [Entry 291, (2E)-3-[4-(4-{5-{[2,3-difluoro-2-(fluoromethyl)pro-pyl]oxy}-2-methyl-3-[(2-pyrrolidin-1-ylethyl)a-mino]phenyl}piperazin-1-yl)-1H-pyrazolo[3,4-d]pyrimidin-3-yl]prop-2-enoic acid]			> 7.00	> 7.00
CCc1n[nH]c2ncnc(N3CCN(c4cc(Cl)cc(OCCN5CCN(C)CC5)c4C)CC3)c12 [Entry 30, 4-[4-(5-chloro-2-methyl-3-{[2-(4-methylpiperazin-1-yl)ethyl]oxy}phenyl)piperazin-1-yl]-3-ethyl-1H-pyrazolo[3,4-d]pyrimidine]	6.00 to 7.00	> 7.00		
Cc1c(CCCN2CCN(C)CC2)cc(Cl)cc1N1CCN(c2ncnc3[nH]nc(Br)c23)CC1 [Entry 19, 3-bromo-4-(4-{5-chloro-2-methyl-3-[3-(4-methylpiperazin-1-yl)propyl]phenyl}piperazin-1-yl)-1H-pyrazolo[3,4-d]pyrimidine]	> 7.00	> 7.00		
Cc1c(NCCN2CCCC2)cc(CO)cc1N1CCN(c2ncnc3[nH]nc(Br)c23)CC1 [Entry 268, {3-[4-(3-bromo-1H-pyrazolo[3,4-d]pyrimidin-4-yl)piperazin-1-yl]-4-methyl-5-[(2-pyrrolidin-1-ylethyl)amino]phenyl}methanol]	6.00 to 7.00	> 7.00		
